According to US9625458B2, “Biosensor” (priority 2002, dated 2017):

Tests used:
[1] = molecular target: T1, E. coli sulfate binding protein (SBP), fluorophore-conjugated cysteine mutants (Escherichia coli, UniProt P0AG78); assay: Ligand affinity of sulfate BP fluorescent conjugates (Kd range); settings: range over conjugates, n=8
T1 construct: several single-Cys mutants with fluorophores
Source text: Molecular Cloning. […] Amplified products were cloned into one of the protein expression vectors pAED4 (Doering, “Functional and structural studies of a small f-actin binding domain” in Ph.D. thesis, Massachusetts Institute of Technology, 1992); pKK223-3 (Brosius & Holy, Proc. Natl. Acad. Sci. USA 81:6929-6933, 1984); or pET vectors (Studier et al., Meth. Enzymol. 185:60-89, 1990) (Novagen). N-terminal oligonucleotide primers were designed to clone only the processed periplasmic form, deleting the signal sequence. The C-terminal primer was designed to append the sequence Gly-Ser-Gly-(His)n or Gly-Ser-(His)n, where n=5, 6, or 10. Two tandem stop codons (TAATGA) follow the last His codon. […] Additionally the sequence of Fe(III) BP was mutated by substitution of Glu57 with Asp to raise the Kd to a concentration range conveniently measured using Fe(III) citrate.
Fluorophore conjugation to cysteine-substituted bPBPs. […] The efficiency of reporter group attachment was assessed by determination of unreacted thiol with Ellman's reagent (Ellman, Arch. Biochem. Biophys. 74:443-450, 1958) or by measuring the ratio of fluorophore to protein from absorbance spectra of the purified conjugate. […]
Fluorimetry. […] Fluorescence emission spectra were acquired with excitation and emission slit widths of 4 and 8 nm, respectively. […]

[2] = molecular target: T2, E. coli sulfate binding protein variant W290C, fluorophore conjugate (Escherichia coli, UniProt P0AG78, W309C); assay: Fluorimetric titration of fluorophore conjugates; settings: JPW4042 conjugate, ligand sulfate
T2 construct: Gly-Ser-Gly-(His)n or Gly-Ser-(His)n, n=5, 6 or 10 (C); initiator methionine (N); made in house; host or cells: E. coli strain BL21-DE3
Source text: (§1) Molecular Cloning. […] Amplified products were cloned into one of the protein expression vectors pAED4 (Doering, “Functional and structural studies of a small f-actin binding domain” in Ph.D. thesis, Massachusetts Institute of Technology, 1992); pKK223-3 (Brosius & Holy, Proc. Natl. Acad. Sci. USA 81:6929-6933, 1984); or pET vectors (Studier et al., Meth. Enzymol. 185:60-89, 1990) (Novagen). N-terminal oligonucleotide primers were designed to clone only the processed periplasmic form, deleting the signal sequence. The C-terminal primer was designed to append the sequence Gly-Ser-Gly-(His)n or Gly-Ser-(His)n, where n=5, 6, or 10. Two tandem stop codons (TAATGA) follow the last His codon. […] Single amino acid substitutions were generated by overlapping PCR mutagenesis (Ho et al., Gene 77:51-59, 1989). All clones and mutations were confirmed by nucleotide sequencing. In the case of arabinose BP, the single cysteine in the wild type sequence was replaced by alanine to eliminate the possibility of reporter group conjugation to this thiol (Miller et al., J. Biol. Chem. 254:7521-7528, 1979). Additionally the sequence of Fe(III) BP was mutated by substitution of Glu57 with Asp to raise the Kd to a concentration range conveniently measured using Fe(III) citrate.
(§2) Fluorophore conjugation to cysteine-substituted bPBPs. Thiol-reactive fluorophores obtained from Molecular Probes (Eugene, Oreg.) were 5-iodoacetamidofluorescein (fluorescein); N-(1-pyrene) iodoacetamide (pyrene); N,N′-dimethyl-N-(iodoacetyl)-N′-(7-nitrobenz-2-oxa-1,3-diazol-4-yl)ethylenediamide (NBD); N-((2-(iodoacetoxy)ethyl)-N-methyl)amino-7-nitrobenz-2-oxa-1,3-diazole (NBDE); and 6-acryloyl-2-dimethylaminonaphthalene (acrylodan). The styryl and naphthyl dyes JPW4039, JPW4042, and JPW4045 (FIG. 3) were synthesized at the University of Connecticut. All fluorophore conjugation steps were typically carried out at room temperature. To protein at a concentration of 100 μM was added tris-(2-carboxyethyl)phosphine HCl to a five-fold molar excess to reduce intermolecular disulfide bonds. A thiol-reactive fluorophore (20 to 25 mM in acetonitrile or dimethyl sulfoxide) was added in small aliquots to a five-fold molar excess over protein. Conjugation proceeded in the dark at room temperature for 4 hours, or overnight at 4° C. Separation of protein from unreacted fluorophore was achieved by exhaustive dialysis or by size-exclusion chromatography. The efficiency of reporter group attachment was assessed by determination of unreacted thiol with Ellman's reagent (Ellman, Arch. Biochem. Biophys. 74:443-450, 1958) or by measuring the ratio of fluorophore to protein from absorbance spectra of the purified conjugate.
(§3) Sulfate BP buffer (20 mM Tris-HCl, pH 8.0) was passed through the chloride form of Dowex 1X2-100 strongly basic anion-exchange resin. Sulfate BP solutions were treated by dialysis against treated buffer; Dowex resin held in a separate dialysis tube was also included.
(§4) Fluorimetry. All measurements were conducted with an SLM Aminco-Bowman series 2 fluorimeter, with sample stirring at 25° C. Fluorescence emission spectra were acquired with excitation and emission slit widths of 4 and 8 nm, respectively. Photomultiplier tube potential was maintained between 400 and 800 volts. Protein concentrations were in the range of 50 to 1000 nM. Fluorophore-specific excitation was at the following approximate wavelengths: tryptophan, 290 nm; acrylodan, 390 nm; fluorescein, 485 nm; pyrene, 340 nm; NBD and NBDE, 490 nm; JPW4039, 485 nm; JPW4042, 470 nm; JPW4045, 470 nm.
(§5) Corrections were made for dilution of the protein and for background signal from buffer. Binding curves were fit to binding isotherms using equation 3 or 4, as appropriate.
(§6) Analyte affinity measurements. […] The emission wavelength monitored was that of maximum difference in intensity between the ligand-free and bound states.

[3] = molecular target: T3, E. coli sulfate binding protein variant Q294C, fluorophore conjugate (Escherichia coli, UniProt P0AG78, Q313C); assay: Fluorimetric titration of fluorophore conjugates; settings: JPW4042 conjugate, ligand sulfate
T3 construct: Gly-Ser-Gly-(His)n or Gly-Ser-(His)n, n=5, 6 or 10 (C); initiator methionine (N); made in house; host or cells: E. coli strain BL21-DE3
Source text: as §1, §2, §3, §4, §5, §6

[4] = molecular target: T4, E. coli sulfate binding protein variant R134C, fluorophore conjugate (Escherichia coli, UniProt P0AG78, R153C); assay: Fluorimetric titration of fluorophore conjugates
T4 construct: Gly-Ser-Gly-(His)n or Gly-Ser-(His)n, n=5, 6 or 10 (C); initiator methionine (N); made in house; host or cells: E. coli strain BL21-DE3
Source text: as §1, §2, §3, §4, §5, §6

[5] = molecular target: T5, E. coli sulfate binding protein variant L65C, fluorophore conjugate (Escherichia coli, UniProt P0AG78, L84C); assay: Fluorimetric titration of fluorophore conjugates; settings: Fluorescein conjugate, ligand sulfate
T5 construct: Gly-Ser-Gly-(His)n or Gly-Ser-(His)n, n=5, 6 or 10 (C); initiator methionine (N); made in house; host or cells: E. coli strain BL21-DE3
Source text: as §1, §2, §3, §4, §5, §6

T4 sequence (P0AG78 20-329 R153C): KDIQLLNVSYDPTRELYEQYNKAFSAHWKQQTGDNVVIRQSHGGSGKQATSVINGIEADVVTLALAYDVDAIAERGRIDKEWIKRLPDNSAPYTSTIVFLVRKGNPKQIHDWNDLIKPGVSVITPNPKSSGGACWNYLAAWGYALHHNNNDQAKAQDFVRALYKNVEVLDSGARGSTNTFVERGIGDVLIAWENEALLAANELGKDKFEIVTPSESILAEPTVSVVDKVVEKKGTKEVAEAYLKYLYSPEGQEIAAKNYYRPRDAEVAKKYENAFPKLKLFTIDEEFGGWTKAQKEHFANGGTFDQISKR
T1 sequence (P0AG78 20-329, change not shown): as the sequence (P0AG78 20-329 R153C) above, with C134R counted along it
T5 sequence (P0AG78 20-329 L84C): as the sequence (P0AG78 20-329 R153C) above, with L65C, C134R counted along it
T3 sequence (P0AG78 20-329 Q313C): as the sequence (P0AG78 20-329 R153C) above, with C134R, Q294C counted along it
T2 sequence (P0AG78 20-329 W309C): as the sequence (P0AG78 20-329 R153C) above, with C134R, W290C counted along it

O=S(=O)(O)O [sulfate]
Kd [1]: 0.32 to 29 µM | Kd [2]: 0.336 µM | Kd [3]: 0.83 µM | Kd ([4]; Acrylodan conjugate, R134C, ligand sulfate): 4.17 µM | Kd ([4]; Fluorescein conjugate, R134C, ligand sulfate): 0.323 µM | Kd ([4]; JPW4039 conjugate, R134C, ligand sulfate): 7.5 µM | Kd ([4]; JPW4042 conjugate, R134C, ligand sulfate): 29.1 µM | Kd ([4]; NBD conjugate, R134C, ligand sulfate): 22.4 µM | Kd ([4]; R134C-acrylodan): ~4 µM | Kd [5]: 1.09 µM
